Where “and” joins values, the source holds several entries; their conditions need not be identical. Equal values may be shown once.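 These data come from cells grown in 96-well plates and exposed to compound for 48 hours at five concentrations. Abbreviation: GI50, concentration required for 50% inhibition of growth. Definition used: TGI = concentration required for complete inhibition of growth.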
Key:
Experiment in all cases: NCI anticancer screen, dose series, 48 h
786-0 renal = tested on: 786-0 renal
A498 renal = tested on: A498 renal
BT-549 breast = tested on: BT-549 breast
M14 melanoma = tested on: M14 melanoma
MCF7 breast = tested on: MCF7 breast
NCI/ADR-RES ovarian = tested on: NCI/ADR-RES ovarian
PC-3 prostate = tested on: PC-3 prostate
SF-539 CNS = tested on: SF-539 CNS
SK-MEL-2 melanoma = tested on: SK-MEL-2 melanoma
UO-31 renal = tested on: UO-31 renal

Row | SMILES | GI50 (786-0 renal) | TGI (786-0 renal) | GI50 (A498 renal) | TGI (A498 renal) | GI50 (BT-549 breast) | TGI (BT-549 breast) | GI50 (M14 melanoma) | TGI (M14 melanoma) | GI50 (MCF7 breast) | TGI (MCF7 breast) | GI50 (NCI/ADR-RES ovarian) | TGI (NCI/ADR-RES ovarian) | GI50 (PC-3 prostate) | TGI (PC-3 prostate) | GI50 (SF-539 CNS) | TGI (SF-539 CNS) | GI50 (SK-MEL-2 melanoma) | TGI (SK-MEL-2 melanoma) | GI50 (UO-31 renal) | TGI (UO-31 renal)
1 | Cc1nn2c(/C=C3\C(=O)Nc4ccccc43)c(C)nc2s1 | 40.4 µM | > 100 µM | 31.3 µM | > 100 µM | > 100 µM | > 100 µM | 12.3 µM | > 100 µM | 7.46 µM | > 100 µM | 6.3 µM | 99 µM | 29.5 µM | > 100 µM | 49.8 µM | > 100 µM | 27.6 µM | > 100 µM | 70 µM | > 100 µM
2 | O=S1(=O)CC(Br)C(Br)C1 (stereo not drawn) | 10.5 µM | 25.5 µM | 25.1 µM | 55.1 µM | 5.4 µM | 18.5 µM | 5.67 µM | 20.8 µM | 2.72 µM | 11.7 µM | 5.26 µM | > 100 µM | 10.7 µM | 26.3 µM | 13.6 µM | 54.4 µM | 8.74 µM | 28.6 µM | 3.77 µM | 14.7 µM
3 | CS(=O)(=O)Nc1cc(-c2ccc3ncnc(Nc4cccc(Cl)c4F)c3c2)cnc1Cl | 3.63 µM | 38.5 µM | 1.68 µM | 4.1 µM | 1.84 µM | 7.65 µM | 3.17 µM | 17 µM | 0.624 µM | 20.1 µM | 7.02 µM | 31.8 µM | 2.27 µM | 11.6 µM | 2.26 µM | 7.98 µM | 2.13 µM | 6.79 µM | 1.24 µM | 4.3 µM
4 | CN(C)CCNc1c2c(c(NCCN(C)C)c3c(CO)c[nH]c13)C(=O)c1ccccc1C2=O | 3.38 µM | 16.2 µM | 18.1 µM | 34.7 µM | 8.23 µM | 23.5 µM | 2.04 µM | 4.57 µM | 1.97 µM | > 34.1 µM | 4.06 µM | 22.7 µM | 2.6 µM | 26.8 µM | 1.96 µM | 4.72 µM | 11.2 µM | 23.2 µM | 3.31 µM | 23.2 µM
5 | Cc1ccc(S(=O)(=O)c2ccsc2N)cc1 | > 100 µM | > 100 µM | 40.7 µM | > 100 µM | > 100 µM | > 100 µM | > 100 µM | > 100 µM | > 100 µM | > 100 µM | > 100 µM | > 100 µM | > 100 µM | > 100 µM | > 100 µM | > 100 µM | > 100 µM | > 100 µM | 47.2 µM | > 100 µM
6 | S=c1[nH]nc(SCc2ccccc2Cl)c2[nH]cnc12 |  | > 100 µM |  | > 100 µM |  | > 100 µM |  | > 100 µM |  | > 100 µM |  | > 100 µM |  | > 100 µM |  | > 100 µM |  | > 100 µM |  | > 100 µM
7 | O=C1NC(O)CCN1C1CC(O)C(CO)O1 (stereo not drawn) |  | > 100 µM |  | > 100 µM |  | > 100 µM |  | > 100 µM |  | > 100 µM |  | > 100 µM |  | > 100 µM |  | > 100 µM |  | > 100 µM |  | > 100 µM
8 | C(#Cc1ccccc1C#Cc1ccccn1)c1ccccn1 | 18.3 µM | > 100 µM | 18 µM | 34.6 µM | 23.6 µM | 45.2 µM | 22.1 µM | > 100 µM | 14.3 µM | 38.2 µM | 5.45 µM | 29.4 µM | 13.5 µM | 30.2 µM | 21.3 µM | 40.2 µM | 18.4 µM | 36 µM | 16.4 µM | 35.3 µM
9 | Cc1c(N)nc(C(CC(N)=O)NCC(N)C(N)=O)nc1C(=O)NC(C(=O)NC(C)C(O)C(C)C(=O)NC(C(=O)NCCc1nc(-c2nc(C(=O)NCCCNCCCCN)cs2)cs1)C(C)O)C(OC1OC(CO)C(O)C(O)C1OC1OC(CO)C(O)C(OC(N)=O)C1O)c1cnc[nH]1 (stereo not drawn) | 0.895 µg/mL and 0.562 µg/mL | 19.4 µg/mL and > 10 µM | 18.5 µg/mL | > 10 µM | 13.7 µg/mL |  | 9.31 µg/mL | > 10 µM | 3.08 µg/mL |  | 3.44 µg/mL and 1.4 µg/mL | 17 µg/mL | 15.3 µg/mL |  | 0.21 µg/mL and 0.0169 µg/mL |  |  | > 10 µM | 2.07 µg/mL and 0.691 µg/mL | 5.71 µg/mL and > 10 µM
10 | O=c1[nH]cnc2nc(-c3ccc(N(CCCl)CCCl)cc3)[nH]c12 | 18.3 µM | 53.2 µM | 22.2 µM | 70.3 µM | 84.8 µM | > 100 µM | 4.97 µM | > 100 µM | > 100 µM | > 100 µM | 13.1 µM | > 100 µM | > 100 µM | > 100 µM | 15.1 µM | 63 µM | > 100 µM | > 100 µM | 10.4 µM | 38.3 µM
11 | CN1N=Nc2c(C(F)(F)F)nn(-c3ccccc3)c2N(C)C1=O | > 100 µM | > 100 µM | > 100 µM | > 100 µM | > 100 µM | > 100 µM | > 100 µM | > 100 µM | > 100 µM | > 100 µM | > 100 µM | > 100 µM | > 100 µM | > 100 µM | > 100 µM | > 100 µM | > 100 µM | > 100 µM | > 100 µM | > 100 µM
12 | O=C(O)c1ccc2cccnc2c1O | 2.4 µM | 24.8 µM |  | > 92.4 µM | 0.561 µM | > 20 µM | 1.53 µM | 26.6 µM | 1.5 µM | > 100 µM | 1.33 µM | 36.2 µM |  | > 100 µM | 1.19 µM | 12.8 µM | 1.95 µM | 7.46 µM | 1.14 µM | 8.65 µM
13 | CC1(C)N=C(N)N=C(N)N1c1ccc(OCCCCNC(=O)c2ccc(S(=O)(=O)F)cc2)c(Cl)c1 | 5.72 µM | > 100 µM | > 100 µM | > 100 µM | > 100 µM | > 100 µM | 8.89 µM | > 100 µM | 3.9 µM | > 100 µM | > 100 µM | > 100 µM | 0.743 µM | > 100 µM | 7.11 µM | > 100 µM | 77.2 µM | > 100 µM | 48.8 µM | > 100 µM

Source: PubChem BioAssay (NCI)
